In PubChem BioAssay AID1361 (SRMLSC, 2008) one finds IC50 data, which are given here for 49 compounds.

A word on the IC50: it is the point on the concentration scale where inhibition reaches its midpoint.

Activity calls are given as the source filed them. How the calls were made is not given here.

A short description of this assay: mitochondrial fusion inhibitors, confirmation, cell-based, chemical genetic, wild-type and mutant (AID 1361). The note with it: Cell-based mitochondrial fusion phenotype, imaging.
The mark [1] stands for this setting: mutant cells, measured here: mutant cell line IC50.

Regarding `Cc1[nH][nH]c(=O)c1C(c1c(C)[nH][nH]c1=O)c1cn(Cc2ccc(Cl)c(Cl)c2)c2ccccc12`, the IC50 by setting is: (WT cells) 5.68 µM; under setting [1], above 25 µM.
As for `NC(=O)NCCC1=CCCCC1`, the IC50 is > 25 µM (inactive) (WT cells) and above 25 µM under setting [1].
Regarding `Cc1cccc(-n2c(-c3csc4ccccc34)n[nH]c2=S)c1`, the IC50 is > 25 µM (inactive) (WT cells) and above 25 µM under setting [1].
Consider `COc1c(F)c(F)c(C(=O)O)c(Nc2ccccc2C)c1F`, for which the IC50 (WT cells) was > 25 µM (inactive) and the IC50 under setting [1] is above 25 µM.
Regarding `S=C1NC(C23CC4CC(CC(C4)C2)C3)=CC(c2ccc3c(c2)OCO3)N1` (stereo not drawn), the IC50 (WT cells) is 4.6 µM and the IC50 under setting [1] is above 25 µM.
Regarding `Cc1cc(C)n(-c2nc(C)nc3c2cnn3-c2ccccc2)n1`, the IC50 (WT cells) is > 25 µM (inactive) and the IC50 under setting [1] is above 25 µM.
In the same order, the values of `CCc1ccc(CCC(=O)Nc2ccccc2C(=O)O)o1` are > 25 µM (inactive) and above 25 µM.
In the case of `COc1ccccc1/C=C\C=N\n1c(-c2ccc(Cl)cc2Cl)n[nH]c1=S`, the IC50 (WT cells) is 9.01 µM and the IC50 under setting [1] was above 25 µM.
Regarding `CCOc1ccc(S(=O)(=O)N2CCN(C(=O)c3cc4c(s3)CCCC4)CC2)cc1`, the IC50 reads like this: (WT cells) 4.98 µM; under setting [1], above 25 µM.
On to `CCCCCCn1c(N2CCN(c3ccccc3)CC2)nc2c1c(=O)n(C)c(=O)n2C`, for which the IC50 reads like this: (WT cells) 19.9 µM; under setting [1], above 25 µM.
`CCCCn1c(N2CCC(Cc3ccccc3)CC2)nc2c1c(=O)[nH]c(=O)n2C`: the IC50 by setting is: (WT cells) 13.7 µM; under setting [1], above 25 µM.
For `COc1ccc(NS(=O)(=O)c2ccc3oc(Nc4ccc5c(c4)OCCO5)nc3c2)cc1`, the IC50 by setting is: (WT cells) 17.6 µM; under setting [1], above 25 µM.
In the same order, the values of `C=C(C)c1cccc(C(C)(C)NC(=O)Nc2ccc(Cl)cn2)c1` are 12.8 µM and above 25 µM.
Consider `COc1ccc(C(C)(C)C)cc1NC(=O)c1cncc(Br)c1`, for which the IC50 reads like this: (WT cells) > 25 µM (inactive); under setting [1], above 25 µM.
In the same order, the values of `CCN(CC)P(=O)(Nc1ccc(C)cc1Br)c1ccc(N(C)C)cc1NC(=O)c1ccco1` (stereo not drawn) are 12.8 µM and above 25 µM.
On the same counts, the results for `O=C(N/N=C/c1cccc(F)c1)c1cc(-c2ccco2)nc2ccccc12` are > 25 µM (inactive) and above 25 µM.
On the same counts, the results for `COc1ccc(NC(=S)NNC(=O)COc2ccc(Cl)cc2Cl)cc1` are 19.5 µM and above 25 µM.
Consider `O=C(N/N=C/c1c[nH]c2ccccc12)c1[nH]c2ccc(Br)cc2c1-c1ccccc1`, for which the IC50 was 3.58 µM (WT cells) and 14.9 µM under setting [1].
In the same order, the values of `Cc1cc(C(=O)CSc2nnc(-c3ccc(Cl)cc3)n2CC2CCCO2)c(C)n1C` (stereo not drawn) are > 25 µM (inactive) and above 25 µM.
On the same counts, the results for `Cc1ccc(/C=N/NC(=O)COc2ccccc2-c2ccccc2)cc1` are 14.9 µM and above 25 µM.
On the same counts, the results for `c1ccc(Cn2c(SCc3cn4cccnc4n3)nnc2-c2ccco2)cc1` are > 25 µM (inactive) and above 25 µM.
Turning to `O=C(N1CCOCC1)N1CCN(C(c2ccccc2)c2ccccc2)CC1`, the IC50 (WT cells) was > 25 µM (inactive) and the IC50 under setting [1] was above 25 µM.
Turning to `CC(C)(C)n1nnnc1C(c1cccs1)N(Cc1cccnc1)Cc1ccccc1Cl` (stereo not drawn), the half-maximal inhibitory concentration (IC50) (WT cells) was 23.2 µM and the IC50 under setting [1] was above 25 µM.
On the same counts, the results for `Cc1ccc(S(=O)(=O)Nc2ccc(C(OC(=O)c3ccccc3[N+](=O)[O-])(C(F)(F)F)C(F)(F)F)cc2)cc1` are 11 µM and above 25 µM.
Take `CCOC(=O)C1CCN(CC(=O)Nc2cc(C)nn2-c2nc3ccccc3s2)CC1`: the IC50 (WT cells) is > 25 µM (inactive) and the IC50 under setting [1] is above 25 µM.
Turning to `Cc1ccc(OCCSc2nc(NC(C)C)nc(NC(C)C)n2)cc1`, the IC50 runs as follows: (WT cells) 12.3 µM; under setting [1], above 25 µM.
On the same counts, the results for `CC(C)CC(=O)NC(=S)N(Cc1ccccc1)Cc1ccccc1` are 19.2 µM and above 25 µM.
On the same counts, the results for `COc1cc(/C=N/n2cnnc2)ccc1OCc1ccccc1` are > 25 µM (inactive) and above 25 µM.
In the same order, the values of `C=CCOc1ccc2ccccc2c1CNCCCN1CCOCC1` are > 25 µM (inactive) and above 25 µM.
Regarding `c1ccc(CC2CCN(c3nnnn3-c3ccccc3)CC2)cc1`, the IC50 is > 25 µM (inactive) (WT cells) and above 25 µM under setting [1].
Turning to `Clc1ccc(CNc2nc(CN3CCOCC3)nc3scc(-c4ccccc4)c23)cc1`, the IC50 was 13.2 µM (WT cells) and 17.9 µM under setting [1].
On the same counts, the results for `CCSc1ccc2cc(OC)ccc2[n+]1CC` are 23.1 µM and above 25 µM.
On the same counts, the results for `CCOC(=O)Cn1c(=NC(=O)c2ccc([N+](=O)[O-])s2)sc2ccccc21` are 4.55 µM and above 25 µM.
On the same counts, the results for `CCOc1ccc(NC(=O)C2CC(=O)N(C(C)C)C2)cc1` (stereo not drawn) are > 25 µM (inactive) and above 25 µM.
Turning to `CCN(CC)S(=O)(=O)c1cccc(C(=O)Nc2sc3c(c2C(N)=O)CCCC3)c1`, the IC50 runs as follows: (WT cells) > 25 µM (inactive); under setting [1], above 25 µM.
Turning to `CC1(C)CC(C(CCN(Cc2ccccc2)C(=O)c2ccco2)c2ccc(F)cc2)CCO1` (stereo not drawn), the IC50 is 16.8 µM (WT cells) and above 25 µM under setting [1].
`CC(C)N(Cc1nc(-c2ccc(Cl)cc2)no1)C(=O)CCC1CCCC1`: the IC50 (WT cells) was 13.7 µM and the IC50 under setting [1] was above 25 µM.
In the same order, the values of `CCC(C)c1ccc(NC(=S)Nc2ccc(OC)c(OC)c2)cc1` (stereo not drawn) are > 25 µM (inactive) and above 25 µM.
With `CCc1nnc(NC(=O)c2cccc(C(=O)Nc3nnc(CC)s3)n2)s1`, the IC50 runs as follows: (WT cells) 23.8 µM; under setting [1], above 25 µM.
On the same counts, the results for `CS(=O)(=O)N(Cc1cc2ccccc2[nH]c1=O)C1CCCCC1` are > 25 µM (inactive) and above 25 µM.
In the same order, the values of `CCN1CCc2nc(NC(=O)c3ccccc3)sc2C1` are > 25 µM (inactive) and above 12.5 µM.
On the same counts, the results for `CC1(C)CC(=O)c2c(O)cc(OCc3ccc([N+](=O)[O-])cc3)cc2O1` are > 25 µM (inactive) and above 25 µM.
Consider `CC1(c2ccc([N+](=O)[O-])cc2)CC(C)(C)N(C(=O)c2ccccc2)c2ccccc21` (stereo not drawn), for which the IC50 is 1.71 µM (WT cells) and 4.04 µM under setting [1].
In the same order, the values of `COc1ccc(N/C(N)=N/c2nc(CSc3ccc(C)cc3)cc(=O)[nH]2)cc1` are > 25 µM (inactive) and above 25 µM.
Turning to `O=C(Nc1ccccc1)Nc1cc(OCC(F)(F)F)cc(OCC(F)(F)F)c1`, the IC50 (WT cells) was 16.3 µM and the IC50 under setting [1] was above 25 µM.
Turning to `Cc1cccc(OCCCC(=O)Nc2ccc3c(c2)OCO3)c1`, the IC50 was > 25 µM (inactive) (WT cells) and above 25 µM under setting [1].
On the same counts, the results for `CC(C)N(C(=S)NC1CC2CCC1C2)c1ccccc1` (stereo not drawn) are 25 µM (inactive) and above 25 µM.
On the same counts, the results for `CC(C)C(=O)Nc1nnc(SCC(=O)NCc2cccs2)s1` are > 25 µM (inactive) and above 25 µM.
In the same order, the values of `Cc1ccc(-c2nnc(SCC(=O)N3CCOCC3)nc2-c2ccc(C)cc2)cc1` are > 25 µM (inactive) and above 25 µM.
